Measured values published in patent US12421254B2, “KRAS modulators and uses thereof” (Quanta Therapeutics, Inc., priority 2023, dated 2025).

Legend:
[1] = test system: phospho-ERK in GP2D (KRAS-G12D) cells; assay: pERK In Cell Western (ICW) assay (Method B), GP2D; format: cell-based; details: GP2d, 3 h, Table 4
Summary of the method: (§1)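 SW620 (KRAS-G12V), GP2D (KRAS-G12D) and AGS cells, seeded overnight, were exposed to compounds (½-log, 9-point) for 3 h at 37°C, then fixed and stained for phospho-ERK. Infrared imaging; pERK normalized to DRAQ5 DNA stain, expressed as percent of blank control, IC50 by 4-parameter fit.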

[2] = test system: phospho-ERK in SW620 (KRAS-G12V) cells; assay: pERK In Cell Western (ICW) assay (Method B), SW620; format: cell-based; details: Homo sapiens, SW-620, 3 h, Table 4
Summary of the method: as §1

[3] = target: GST-tagged KRAS-G12V (2-169) (Homo sapiens, UniProt P01116, G12V); assay: Nucleotide exchange assay (NEA), SOS-mediated, HTRF, KRAS G12V; format: biochemical; details: Table 4; IC50 extracted at 90 min; 80 nM SOS
Summary of the method: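 GST-KRAS-G12V (2-169), 0.25 nM, pre-incubated 1 h at RT with compound, then SOS1cat (564-1049) 80 nM and GTP-DY-647P1 150 nM added in HEPES pH 7.3 buffer with MgCl2 and DTT. HTRF via anti-GST Tb cryptate read over 90 min; IC50 from 4-parameter fit at 90 min, blanked to no-SOS reactions.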

[4] = target: GST-tagged KRAS-G12D (2-169) (Homo sapiens, UniProt P01116, G12D); assay: Nucleotide exchange assay (NEA), SOS-mediated, HTRF, KRAS G12D; format: biochemical; details: Table 4; IC50 extracted at 30 min; 20 nM SOScat; read-out: NEA G12D IC50
Summary of the method: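 Compound preincubated 1 h at RT with 0.25 nM GST-KRAS-G12D (2-169) and anti-GST Tb donor, then 20 nM SOS1cat (564-1049) and 150 nM GTP-DY-647P1 added; pH 7.3 HEPES buffer with MgCl2 and DTT. HTRF monitored at RT; % inhibition versus DMSO and no-SOS blank, 4-parameter IC50 taken at 30 min.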

Sequence of GST-tagged KRAS-G12D (2-169) (P01116 2-169 isoform P01116-2 G12D): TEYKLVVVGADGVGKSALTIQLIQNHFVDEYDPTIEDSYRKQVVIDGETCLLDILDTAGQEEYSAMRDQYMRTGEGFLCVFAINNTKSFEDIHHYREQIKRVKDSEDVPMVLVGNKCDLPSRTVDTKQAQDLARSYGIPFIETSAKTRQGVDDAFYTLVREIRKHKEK
Sequence of GST-tagged KRAS-G12V (2-169) (P01116 2-169 isoform P01116-2 G12V): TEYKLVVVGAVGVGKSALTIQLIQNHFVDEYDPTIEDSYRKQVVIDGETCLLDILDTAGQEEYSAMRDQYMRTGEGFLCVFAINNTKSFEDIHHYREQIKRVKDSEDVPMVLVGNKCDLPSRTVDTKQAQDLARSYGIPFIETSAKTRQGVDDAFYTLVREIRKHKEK

CC(=O)C(O)(O)C(=O)N1[C@@H]2CC[C@H]1CN(c1nc(OC[C@@]34CCCN3C[C@H](F)C4)nc(N3CC4(C3)SCc3sc(N)c(C#N)c34)n1)C2 [Compound 159, 2-amino-1′-[4-[(1R,5S)-8-(2,2-dihydroxy-3-oxo-butanoyl)-3,8-diazabicyclo[3.2.1]octan-3-yl]-6-[[(2R,8S)-2-fluoro-1,2,3,5,6,7-hexahydropyrrolizin-8-yl]methoxy]-1,3,5-triazin-2-yl]spiro[6H-thieno[3,4-b]thiophene-4,3′-azetidine]-3-carbonitrile]
IC50 [1]: 100 to 1000 nM | IC50 [2]: 1000 to 20000 nM | IC50 [3]: 100 to 1000 nM | IC50 [4]: 10 to 100 nM

CN(c1nc(OC[C@@]23CCCN2C[C@H](F)C3)nc(N2CC3(C2)SCc2sc(N)c(C#N)c23)n1)C1CC1 [Compound 160, 2-amino-1′-[4-[cyclopropyl(methyl)amino]-6-[[(2R,8S)-2-fluoro-1,2,3,5,6,7-hexahydropyrrolizin-8-yl]methoxy]-1,3,5-triazin-2-yl]spiro[6H-thieno[3,4-b]thiophene-4,3′-azetidine]-3-carbonitrile]
IC50 [1]: 100 to 1000 nM | IC50 [2]: 100 to 1000 nM | IC50 [3]: 10 to 100 nM | IC50 [4]: 10 to 100 nM

CC(c1ccc(F)nc1N)N(C)c1nc(OC[C@@]23CCCN2C[C@H](F)C3)nc(N2CC3(CCc4sc(N)c(C#N)c43)C2)n1 (stereo partly drawn) [Compound 162, 2-amino-1′-[4-[1-(2-amino-6-fluoro-3-pyridyl)ethyl-methyl-amino]-6-[[(2R,8S)-2-fluoro-1,2,3,5,6,7-hexahydropyrrolizin-8-yl]methoxy]-1,3,5-triazin-2-yl]spiro[5,6-dihydrocyclopenta[b]thiophene-4,3′-azetidine]-3-carbonitrile]
IC50 [1]: 100 to 1000 nM | IC50 [2]: 10 to 100 nM | IC50 [3]: < 10 nM | IC50 [4]: 10 to 100 nM

C[C@H](c1cccnc1N)N(C)c1nc(OC[C@@]23CCCN2C[C@H](F)C3)nc(N2CC3(CCCc4sc(N)c(C#N)c43)C2)n1 [Compound 163, 2-amino-1′-[4-[[(1R)-1-(2-amino-3-pyridyl)ethyl]-methyl-amino]-6-[[(2R,8S)-2-fluoro-1,2,3,5,6,7-hexahydropyrrolizin-8-yl]methoxy]-1,3,5-triazin-2-yl]spiro[6,7-dihydro-5H-benzothiophene-4,3′-azetidine]-3-carbonitrile]
IC50 [1]: < 10 nM | IC50 [2]: < 10 nM | IC50 [3]: < 10 nM | IC50 [4]: < 10 nM

CN(Cc1nsnc1N)c1nc(OC[C@@]23CCCN2C[C@H](F)C3)nc(N2CC3(CCc4sc(N)c(C#N)c43)C2)n1 [Compound 166, 2-amino-1′-[4-[(4-amino-1,2,5-thiadiazol-3-yl)methyl-methyl-amino]-6-[[(2R,8S)-2-fluoro-1,2,3,5,6,7-hexahydropyrrolizin-8-yl]methoxy]-1,3,5-triazin-2-yl]spiro[5,6-dihydrocyclopenta[b]thiophene-4,3′-azetidine]-3-carbonitrile]
IC50 [1]: 100 to 1000 nM | IC50 [2]: 10 to 100 nM | IC50 [3]: < 10 nM | IC50 [4]: 10 to 100 nM

N#Cc1c(N)sc2c1C1(CN(c3nc(OCC4(CN5CCOCC5)CC4)nc(N4C[C@H]5CC[C@@H](C4)N5)n3)C1)SC2 [Compound 167, 1-(4-((1R,5S)-3,8-diazabicyclo[3.2.1]octan-3-yl)-6-((1-(morpholinomethyl)cyclopropyl)methoxy)-1,3,5-triazin-2-yl)-2′-amino-6′H-spiro[azetidine-3,4′-thieno[3,4-b]thiophene]-3′-carbonitrile]
IC50 [1]: < 10 nM | IC50 [2]: 1000 to 20000 nM | IC50 [3]: 10 to 100 nM | IC50 [4]: < 10 nM

N#Cc1c(N)sc2c1C1(CN(c3nc(OC[C@@]45CCCN4C[C@H](F)C5)nc(Oc4ccnnc4)n3)C1)SC2 [Compound 169, 2-amino-1′-[4-[[(2R,8S)-2-fluoro-1,2,3,5,6,7-hexahydropyrrolizin-8-yl]methoxy]-6-pyridazin-4-yloxy-1,3,5-triazin-2-yl]spiro[6H-thieno[2,3-c]thiophene-4,3′-azetidine]-3-carbonitrile]
IC50 [1]: 1000 to 20000 nM | IC50 [2]: 1000 to 20000 nM | IC50 [3]: 100 to 1000 nM | IC50 [4]: 1000 to 20000 nM

CC(c1nsnc1N)N(C)c1nc(OC[C@@]23CCCN2C[C@H](F)C3)nc(N2CC3(CCc4sc(N)c(C#N)c43)C2)n1 (stereo partly drawn) [Compound 170, -amino-1′-[4-[1-(4-amino-1,2,5-thiadiazol-3-yl)ethyl-methyl-amino]-6-[[(2R,8S)-2-fluoro-1,2,3,5,6,7-hexahydropyrrolizin-8-yl]methoxy]-1,3,5-triazin-2-yl]spiro[5,6-dihydrocyclopenta[b]thiophene-4,3′-azetidine]-3-carbonitrile]
IC50 [1]: 100 to 1000 nM | IC50 [2]: 10 to 100 nM | IC50 [3]: < 10 nM | IC50 [4]: 10 to 100 nM

CCN(c1nc(OC[C@@]23CCCN2C[C@H](F)C3)nc(N2CC3(C2)SCc2sc(N)c(C#N)c23)n1)C(C)c1nonc1N (stereo partly drawn) [Compound 171, 2-amino-1′-[4-[1-(4-amino-1,2,5-oxadiazol-3-yl)ethyl-ethyl-amino]-6-[[(2R,8S)-2-fluoro-1,2,3,5,6,7-hexahydropyrrolizin-8-yl]methoxy]-1,3,5-triazin-2-yl]spiro[6H-thieno[2,3-c]thiophene-4,3′-azetidine]-3-carbonitrile]
IC50 [1]: 10 to 100 nM | IC50 [2]: < 10 nM | IC50 [3]: < 10 nM | IC50 [4]: 10 to 100 nM

C[C@H](c1cccnc1N)N(C)c1nc(OC[C@@]23CCCN2C[C@H](F)C3)nc(N2CC(C)(c3csc(N)c3C#N)C2)n1 [Compound 172, 2-amino-4-[1-[4-[[(1R)-1-(2-amino-3-pyridyl)ethyl]-methyl-amino]-6-[[(2R,8S)-2-fluoro-1,2,3,5,6,7-hexahydropyrrolizin-8-yl]methoxy]-1,3,5-triazin-2-yl]-3-methyl-azetidin-3-yl]thiophene-3-carbonitrile]
IC50 [1]: 100 to 1000 nM | IC50 [2]: 10 to 100 nM | IC50 [3]: < 10 nM | IC50 [4]: < 10 nM

CCN(c1nc(OC[C@@]23CCCN2C[C@H](F)C3)nc(N2CC3(CCc4sc(N)c(C#N)c43)C2)n1)[C@H](C)c1cccnc1N [Compound 173, 2-amino-1′-[4-[[(1R)-1-(2-amino-3-pyridyl)ethyl]-ethyl-amino]-6-[[(2R,8S)-2-fluoro-1,2,3,5,6,7-hexahydropyrrolizin-8-yl]methoxy]-1,3,5-triazin-2-yl]spiro[5,6-dihydrocyclopenta[b]thiophene-4,3′-azetidine]-3-carbonitrile]
IC50 [1]: < 10 nM | IC50 [2]: < 10 nM | IC50 [3]: < 10 nM | IC50 [4]: < 10 nM

CC(c1nsnc1N)N(C)c1nc(OC[C@@]23CCCN2C[C@H](F)C3)nc(N2CC3(C2)SCc2sc(N)c(C#N)c23)n1 (stereo partly drawn) [Compound 174, 2-amino-1′-[4-[1-(4-amino-1,2,5-thiadiazol-3-yl)ethyl-methyl-amino]-6-[[(2R,8S)-2-fluoro-1,2,3,5,6,7-hexahydropyrrolizin-8-yl]methoxy]-1,3,5-triazin-2-yl]spiro[6H-thieno[2,3-c]thiophene-4,3′-azetidine]-3-carbonitrile]
IC50 [1]: 10 to 100 nM | IC50 [2]: < 10 nM | IC50 [3]: < 10 nM | IC50 [4]: < 10 nM

CCN(c1nc(OC[C@@H]2CC(F)(F)CN2C)nc(N2CC3(C2)SCc2sc(N)c(C#N)c23)n1)[C@H](C)c1cccnc1N [Compound 176, 2-amino-1′-[4-[[(1R)-1-(2-amino-3-pyridyl)ethyl]-ethyl-amino]-6-[[(2S)-4,4-difluoro-1-methyl-pyrrolidin-2-yl]methoxy]-1,3,5-triazin-2-yl]spiro[6H-thieno[3,4-b]thiophene-4,3′-azetidine]-3-carbonitrile]
IC50 [1]: 1000 to 20000 nM | IC50 [2]: 10 to 100 nM | IC50 [3]: < 10 nM | IC50 [4]: 100 to 1000 nM
